Data taken from ChEMBL document CHEMBL1201862, “PubChem BioAssay data set” (2004).
Several values for one entry are separate records, joined by “and”; a condition that tells them apart may be missing. Equal values may be shown once.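 Exposure lasted 48 hours, with cells grown in 96-well plates and compounds tested at five concentrations. Abbreviation: GI50, concentration required for 50% inhibition of growth.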 Activity calls are given as the source filed them. No stated cut-off is given here; in the data, active = GI50 up to about 1.1 µM and inactive = higher.

How the values were obtained:
Assay in all cases: NCI anticancer screen, dose series, 48 h
SK-MEL-5 = test system: SK-MEL-5
HCT-116 = test system: HCT-116
HOP-62 = test system: HOP-62
SF-539 = test system: SF-539
LOX IMVI = test system: LOX IMVI
OVCAR-3 = test system: OVCAR-3
RXF 393 = test system: RXF 393
SW-620 = test system: SW-620
Malme-3M = test system: Malme-3M
A498 = test system: A498
IGROV-1 = test system: IGROV-1
SR = test system: SR
COLO 205 = test system: COLO 205
A549 = test system: A549
SF-295 = test system: SF-295
Hs-578T = test system: Hs-578T
UACC-62 = test system: UACC-62
PC-3 = test system: PC-3
U-251 = test system: U-251
UACC-257 = test system: UACC-257

| SMILES | GI50 (SK-MEL-5) | GI50 (HCT-116) | GI50 (HOP-62) | GI50 (SF-539) | GI50 (LOX IMVI) | GI50 (OVCAR-3) | GI50 (RXF 393) | GI50 (SW-620) | GI50 (Malme-3M) | GI50 (A498) | GI50 (IGROV-1) | GI50 (SR) | GI50 (COLO 205) | GI50 (A549) | GI50 (SF-295) | GI50 (Hs-578T) | GI50 (UACC-62) | GI50 (PC-3) | GI50 (U-251) | GI50 (UACC-257) |
| --- | --- | --- | --- | --- | --- | --- | --- | --- | --- | --- | --- | --- | --- | --- | --- | --- | --- | --- | --- | --- |
| ON(CCc1ccncc1)Cc1ccccc1 | > 100 µM (inactive) | > 100 µM (inactive) | > 100 µM (inactive) | > 100 µM (inactive) | > 100 µM (inactive) | > 100 µM (inactive) | > 100 µM (inactive) | > 100 µM (inactive) | > 100 µM (inactive) | > 100 µM (inactive) | > 100 µM (inactive) | > 100 µM (inactive) | > 100 µM (inactive) | > 100 µM (inactive) | > 100 µM (inactive) | > 100 µM (inactive) | > 100 µM (inactive) | – | – | – |
| COc1ccc(-c2nc(O)c3ccccc3n2)c(OC)c1 | > 100 µM (inactive) | > 100 µM (inactive) | > 100 µM (inactive) | – | – | > 100 µM (inactive) | > 100 µM (inactive) | > 100 µM (inactive) | > 100 µM (inactive) | > 100 µM (inactive) | > 100 µM (inactive) | – | > 100 µM (inactive) | > 100 µM (inactive) | > 100 µM (inactive) | > 100 µM (inactive) | > 100 µM (inactive) | > 100 µM (inactive) | > 100 µM (inactive) | > 100 µM (inactive) |
| CCOc1cc2c(cc1O)/C(=N\O)C[C@@H]1[C@@H]2CC[C@]2(C)[C@@H](O)CC[C@@H]12 | 0.01 µM (active) | < 0.0211 µM (active) | < 0.0201 µM (active) | 0.00256 µM (active) | < 0.0363 µM (active) | – | – | – | – | < 0.0272 µM (active) | 0.628 µM (active) | – | 8.79 µM (inactive) | 0.0521 µM (active) | – | < 0.0221 µM (active) | < 0.0191 µM (active) | – | 0.018 µM (active) | 33.3 µM (inactive) |
| CC12CC3OC(=O)C1COC14OC5(C2C1=O)C(O)(CCC1C4CC(O)C2(O)CC=CC(=O)C12C)C(=O)OC35C (configuration not stated) | > 100 µM (inactive) | > 100 µM (inactive) | – | > 100 µM (inactive) | > 100 µM (inactive) | > 100 µM (inactive) | – | > 100 µM (inactive) | > 100 µM (inactive) | – | > 100 µM (inactive) | – | > 100 µM (inactive) | > 100 µM (inactive) | > 100 µM (inactive) | > 100 µM (inactive) | > 100 µM (inactive) | > 100 µM (inactive) | > 100 µM (inactive) | > 100 µM (inactive) |
| COc1nc2sc3c(c2c(=O)n1CCCSSCCCn1c(OC)nc2sc4c(c2c1=O)CCCC4)CCCC3 | > 100 µM (inactive) | > 100 µM (inactive) | > 100 µM (inactive) | > 100 µM (inactive) | > 100 µM (inactive) | – | > 100 µM (inactive) | – | > 100 µM (inactive) | – | > 100 µM (inactive) | – | > 100 µM (inactive) | > 100 µM (inactive) | > 100 µM (inactive) | – | > 100 µM (inactive) | > 100 µM (inactive) | > 100 µM (inactive) | > 100 µM (inactive) |
| O=P1(O)c2ccccc2CCc2ccccc21 | > 100 µM (inactive) | > 100 µM (inactive) | > 100 µM (inactive) | > 100 µM (inactive) | > 100 µM (inactive) | > 100 µM (inactive) | > 100 µM (inactive) | > 100 µM (inactive) | – | – | > 100 µM (inactive) | – | > 100 µM (inactive) | > 100 µM (inactive) | > 100 µM (inactive) | > 100 µM (inactive) | > 100 µM (inactive) | > 100 µM (inactive) | – | > 100 µM (inactive) |
| Nc1ncnc2c1ncn2C1CC(OCc2ccccc2[N+](=O)[O-])C(CO)O1 (configuration not stated) | – | 17.4 µM (inactive) | 24.3 µM (inactive) | 44.5 µM (inactive) | 20.9 µM (inactive) | 30.1 µM (inactive) | 5.38 µM (inactive) | 36 µM (inactive) | 20 µM (inactive) | > 50 µM (inactive) | 28.9 µM (inactive) | 10.8 µM (inactive) | 9.2 µM (inactive) | 21.7 µM (inactive) | 15.6 µM (inactive) | – | – | – | 24.2 µM (inactive) | 18.5 µM (inactive) |
| COc1ccc(/N=C2\C(=N/c3ccc(OC)cc3)N(c3ccc(N(C)C)cc3)C(=S)N2c2ccc(OC)cc2)cc1 | > 100 µM (inactive) | > 100 µM (inactive) | > 64.6 µM (inactive) | 0.184 µM (active) | > 100 µM (inactive) | > 100 µM (inactive) | 0.0378 µM (active) | > 100 µM (inactive) | > 100 µM (inactive) | > 100 µM (inactive) | > 100 µM (inactive) | – | > 100 µM (inactive) | > 100 µM (inactive) | 0.0518 µM (active) | – | > 100 µM (inactive) | > 100 µM (inactive) | – | > 38 µM (inactive) |
| CCOC(=O)/C=C(/C(=O)OCC)n1cc(Cl)c(=O)n(CC(=O)OCC)c1=O | 5.66 µM (inactive) | 4.97 µM (inactive) | 22.4 µM (inactive) | 5.04 µM (inactive) | 4.37 µM (inactive) | 5.98 µM (inactive) | 4.57 µM (inactive) | 0.995 µM (active) | 6.11 µM (inactive) | 17.5 µM (inactive) | 4.76 µM (inactive) | 5.24 µM (inactive) | 0.787 µM (active) | 6.41 µM (inactive) | > 25 µM (inactive) | – | 4.53 µM (inactive) | 4.76 µM (inactive) | 5.83 µM (inactive) | 4.94 µM (inactive) |
| COc1ccc(OC)c(/C=C/[N+](=O)[O-])c1 | 3.29 µM (inactive) and 2.33 µM (inactive) | 1.85 µM (inactive) and 3.13 µM (inactive) | 4.93 µM (inactive) and 2.78 µM (inactive) | 3.6 µM (inactive) and 2.89 µM (inactive) | 1.84 µM (inactive) and 948 nM (active) | 2.14 µM (inactive) and 1.75 µM (inactive) | 1.12 µM (inactive) and 2.05 µM (inactive) | 3 µM (inactive) and 2.2 µM (inactive) | – | 3.92 µM (inactive) and 3.94 µM (inactive) | – | – | 2.04 µM (inactive) and 3.15 µM (inactive) | 3.24 µM (inactive) and 5.79 µM (inactive) | 5.24 µM (inactive) and 3.46 µM (inactive) | 4 µM (inactive) | – | – | 2.56 µM (inactive) and 3.76 µM (inactive) | 4.1 µM (inactive) and 3.92 µM (inactive) |
| Cn1c(C(O)C2(c3cccnc3)SCCCS2)cc2ccccc21 (configuration not stated) | 37.6 µM (inactive) | > 100 µM (inactive) | > 100 µM (inactive) | – | > 100 µM (inactive) | 36.6 µM (inactive) | – | > 100 µM (inactive) | > 100 µM (inactive) | > 100 µM (inactive) | 30 µM (inactive) | 55.5 µM (inactive) | > 100 µM (inactive) | > 100 µM (inactive) | 56.9 µM (inactive) | – | 88.3 µM (inactive) | 66.1 µM (inactive) | > 100 µM (inactive) | 53.3 µM (inactive) |
| Brc1cccc(Nc2ncnc3sc4c(c23)CCC2(C4)OCCO2)c1 | 15.8 µM (inactive) | 27.2 µM (inactive) | 52.4 µM (inactive) | – | 18.6 µM (inactive) | 28.4 µM (inactive) | – | 0.0203 µM (active) | 39.2 µM (inactive) | 15.3 µM (inactive) | 8.73 µM (inactive) | – | 18 µM (inactive) | 80 µM (inactive) | 32.5 µM (inactive) | 28.4 µM (inactive) | 22.9 µM (inactive) | 33.7 µM (inactive) | 35.6 µM (inactive) | 26.7 µM (inactive) |
| CC(/C=C/c1ccccc1)=N\NC(N)=S | 38.5 µM (inactive) | 35.7 µM (inactive) | > 100 µM (inactive) | 31.7 µM (inactive) | > 100 µM (inactive) | 24.5 µM (inactive) | – | 50.4 µM (inactive) | 45.7 µM (inactive) | 22.2 µM (inactive) | 21 µM (inactive) | 23.2 µM (inactive) | 20.5 µM (inactive) | 47.5 µM (inactive) | 21.5 µM (inactive) | – | – | 90.8 µM (inactive) | 40.5 µM (inactive) | 47.9 µM (inactive) |
| CSc1nnc2n1-c1ccccc1SCC2 | – | > 100 µM (inactive) | > 100 µM (inactive) | > 100 µM (inactive) | > 100 µM (inactive) | > 100 µM (inactive) | > 100 µM (inactive) | > 100 µM (inactive) | > 100 µM (inactive) | > 100 µM (inactive) | > 100 µM (inactive) | > 100 µM (inactive) | > 100 µM (inactive) | > 100 µM (inactive) | > 100 µM (inactive) | – | > 100 µM (inactive) | – | > 100 µM (inactive) | > 100 µM (inactive) |
| COc1nc(/C=N/NC(N)=S)nc(OC)n1 | – | 64.4 µM (inactive) | – | 32.4 µM (inactive) | – | > 100 µM (inactive) | > 100 µM (inactive) | > 100 µM (inactive) | 72.1 µM (inactive) | 33.7 µM (inactive) | > 100 µM (inactive) | 68.7 µM (inactive) | > 100 µM (inactive) | 56.6 µM (inactive) | 42.3 µM (inactive) | – | 35.3 µM (inactive) | – | 54.8 µM (inactive) | > 100 µM (inactive) |
| NCCCC1NC(=O)/C(=C(O)/C=C/C2CCC[C@@H]2CC2SCCS2)C1=O (some centres not stated) | > 100 µM (inactive) | > 100 µM (inactive) | > 100 µM (inactive) | > 100 µM (inactive) | > 100 µM (inactive) | > 100 µM (inactive) | > 100 µM (inactive) | 57 µM (inactive) | > 100 µM (inactive) | > 100 µM (inactive) | > 100 µM (inactive) | 58.5 µM (inactive) | 37.2 µM (inactive) | > 100 µM (inactive) | > 100 µM (inactive) | – | > 100 µM (inactive) | – | > 100 µM (inactive) | 76.9 µM (inactive) |
